Data published in PubChem BioAssay AID328 (DTP/NCI, 2004).
“And” between values parts separate entries of the source, which are not always exact repeats. Equal entries are not always repeated. Inconclusive results and toxic doses are left out. Rule for the calls: active = survival T/C of 150% or more; inactive = T/C below 125% in these data.

Test system: BDF1 mice, P388 leukemia ip, median survival T/C
Assay: NCI In Vivo Anticancer Drug Screen. Data for tumor model P388 Leukemia (intraperitoneal) in B6D2F1 (BDF1) mice
Details: endpoint: median survival time, higher = longer survival
Method in brief: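 In tumour-bearing mice, survival after compound treatment is set against the vehicle group and given as a quotient.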

[1] = dose: 3.12 mg/kg/injection, schedule: Q01DX009 (ip), vehicle: saline
[2] = dose: 6.25 mg/kg/injection, schedule: Q01DX009 (ip), vehicle: saline
[3] = dose: 12.5 mg/kg/injection, schedule: Q01DX009 (ip), vehicle: saline
[4] = dose: 50.0 mg/kg/injection, schedule: Q04DX003 (ip), vehicle: saline
[5] = dose: 50.0 mg/kg/injection, schedule: Q01DX009 (ip), vehicle: saline with Tween-80
[6] = dose: 100.0 mg/kg/injection, schedule: Q01DX009 (ip), vehicle: saline with Tween-80
[7] = dose: 200.0 mg/kg/injection, schedule: Q01DX009 (ip), vehicle: saline with Tween-80
[8] = dose: 12.5 mg/kg/injection, schedule: Q01DX009 (ip), vehicle: saline with Tween-80
[9] = dose: 25.0 mg/kg/injection, schedule: Q01DX009 (ip), vehicle: saline with Tween-80
[10] = dose: 12.5 mg/kg/injection, schedule: Q04DX003 (ip), vehicle: saline with Tween-80
[11] = dose: 100.0 mg/kg/injection, schedule: Q04DX003 (ip), vehicle: saline with Tween-80
[12] = dose: 200.0 mg/kg/injection, schedule: Q04DX003 (ip), vehicle: saline with Tween-80
[13] = dose: 400.0 mg/kg/injection, schedule: Q04DX003 (ip), vehicle: saline with Tween-80
[14] = dose: 400.0 mg/kg/injection, schedule: Q01DX009 (ip), vehicle: saline with Tween-80

Measured: T/C

CC1(C)O[C@]2(C)CC[C@@H]1[C@@H](O)[C@@H]2N1CCCCC1
inactive: dose: 50.0 mg/kg/injection, schedule: Q01DX005 (ip), vehicle: saline with Tween-80 109 % of control | dose: 100.0 mg/kg/injection, schedule: Q01DX005 (ip), vehicle: saline with Tween-80 111 % of control | dose: 200.0 mg/kg/injection, schedule: Q01DX005 (ip), vehicle: saline with Tween-80 97 % of control

CC1(C(=O)N2CC2)OC1c1ccccc1 (centres undefined)
inactive: dose: 25.0 mg/kg/injection, schedule: Q04DX002 (ip), vehicle: saline with Tween-80 91 % of control | dose: 50.0 mg/kg/injection, schedule: Q04DX002 (ip), vehicle: saline with Tween-80 98 % of control | dose: 100.0 mg/kg/injection, schedule: Q04DX002 (ip), vehicle: saline with Tween-80 96 % of control and 100 % of control

O=C1C(NC(=O)C2CCCCC2)=C(N2CC2)C(=O)C(NC(=O)C2CCCCC2)=C1N1CC1
active: dose: 200.0 mg/kg/injection, schedule: Q01DX010 (ip), vehicle: saline 150 % of control and 209 % of control
inactive: dose: 25.0 mg/kg/injection, schedule: Q01DX009 (ip), vehicle: Klucel (hydroxypropylcellulose) (HPC) 123 % of control | dose: 50.0 mg/kg/injection, schedule: Q01DX010 (ip), vehicle: saline 118 % of control | dose: 100.0 mg/kg/injection, schedule: Q01DX009 (ip), vehicle: Klucel (hydroxypropylcellulose) (HPC) 106 % of control | dose: 400.0 mg/kg/injection, schedule: Q01DX010 (ip), vehicle: saline 86 % of control

CCCCNC(C)(C)CO
inactive: [1] 100 % of control | [2] 99 % of control | [3] 99 % of control | dose: 12.5 mg/kg/injection, schedule: Q04DX003 (ip), vehicle: saline 102 % of control | dose: 25.0 mg/kg/injection, schedule: Q01DX009 (ip), vehicle: saline 99 % of control | dose: 25.0 mg/kg/injection, schedule: Q04DX003 (ip), vehicle: saline 100 % of control | dose: 50.0 mg/kg/injection, schedule: Q01DX009 (ip), vehicle: saline 86 % of control | [4] 102 % of control | dose: 100.0 mg/kg/injection, schedule: Q01DX009 (ip), vehicle: saline 103 % of control | dose: 100.0 mg/kg/injection, schedule: Q04DX003 (ip), vehicle: saline 95 % of control and 100 % of control

CN1C(=O)C(C2Sc3ccccc3NC2=O)SC1=S (centres undefined)
inactive: [5] 102 % of control | [6] 104 % of control | [7] 99 % of control

Cc1nc(N)nc2nc[nH]c12
inactive: [8] 94 % of control | [9] 96 % of control | [5] 99 % of control | [6] 96 % of control

O=[N+]([O-])c1ccc(NCc2ccccc2)nc1
inactive: [9] 107 % of control | [5] 109 % of control | [6] 114 % of control

CC(=O)OC1C=CC(=O)OC1C1OC1C (centres undefined)
inactive: dose: 3.0 mg/kg/injection, schedule: Q01DX010 (ip), vehicle: carboxymethylcellulose (CMC) 90 % of control | dose: 6.0 mg/kg/injection, schedule: Q01DX010 (ip), vehicle: carboxymethylcellulose (CMC) 90 % of control | dose: 12.0 mg/kg/injection, schedule: Q01DX010 (ip), vehicle: carboxymethylcellulose (CMC) 100 % of control | dose: 25.0 mg/kg/injection, schedule: Q01DX010 (ip), vehicle: carboxymethylcellulose (CMC) 109 % of control

Clc1ccc2c(c1)N(CCCN1CCCC13CCCCC3)c1ccccc1S2
inactive: dose: 1.56 mg/kg/injection, schedule: Q01DX009 (ip), vehicle: saline 87 % of control | dose: 1.56 mg/kg/injection, schedule: Q04DX003 (ip), vehicle: saline with Tween-80 91 % of control | [1] 104 % of control | dose: 3.12 mg/kg/injection, schedule: Q04DX003 (ip), vehicle: saline with Tween-80 91 % of control | [2] 95 % of control | dose: 6.25 mg/kg/injection, schedule: Q04DX003 (ip), vehicle: saline with Tween-80 91 % of control | [3] 95 % of control | [10] 95 % of control

CCOC(=O)C1=C(C)NC(C)=C(C(=O)OCC)C1c1ccc([N+](=O)[O-])s1
inactive: [5] 106 % of control | [6] 99 % of control

CCCB(O)O
inactive: dose: 100.0 mg/kg/injection, schedule: Q01DX001 (ip), vehicle: saline 100 % of control | dose: 200.0 mg/kg/injection, schedule: Q01DX001 (ip), vehicle: saline 113 % of control | dose: 400.0 mg/kg/injection, schedule: Q01DX001 (ip), vehicle: saline 95 % of control

CCCCN(C)N=Nc1ccc(CCCC(=O)OCC)cc1
inactive: [8] 91 % of control | [9] 100 % of control | [5] 117 % of control | dose: 132.0 mg/kg/injection, schedule: Q04DX003 (ip), vehicle: saline 95 % of control | dose: 300.0 mg/kg/injection, schedule: Q04DX003 (ip), vehicle: saline 121 % of control
active: dose: 200.0 mg/kg/injection, schedule: Q04DX003 (ip), vehicle: saline 156 % of control

COC(=O)C(CSCSC)NC(=O)/C=C/c1cc(OC)ccc1OC (centres undefined)
inactive: [5] 93 % of control | [6] 92 % of control | [7] 88 % of control

NC(=O)CC(NC(=O)CCl)C(=O)O (centres undefined)
inactive: [11] 90 % of control | [12] 90 % of control | [13] 86 % of control

CSc1nc2n(Cc3c[nH]c(=O)[nH]c3=O)cc(C)cc-2c(=O)n1
inactive: dose: 6.25 mg/kg/injection, schedule: Q01DX009 (ip), vehicle: saline with Tween-80 101 % of control | [8] 102 % of control | [9] 95 % of control | [5] 93 % of control | dose: 100.0 mg/kg/injection, schedule: Q01DX001 (ip), vehicle: saline with Tween-80 113 % of control | dose: 200.0 mg/kg/injection, schedule: Q01DX001 (ip), vehicle: saline with Tween-80 106 % of control

CCCCCCCCCCCC(=O)NC1CC(O[C@H]2C[C@](O)(C(=O)CO)Cc3c(O)c4c(c(O)c32)C(=O)c2c(OC)cccc2C4=O)OC(C)C1O (some centres undefined)
active: dose: 3.13 mg/kg/injection, schedule: Q01DX009 (ip), vehicle: water 159 % of control | dose: 6.25 mg/kg/injection, schedule: Q01DX009 (ip), vehicle: water 168 % of control | dose: 12.5 mg/kg/injection, schedule: Q01DX009 (ip), vehicle: water 240 % of control | dose: 25.0 mg/kg/injection, schedule: Q01DX009 (ip), vehicle: water 159 % of control
inactive: dose: 0.78 mg/kg/injection, schedule: Q01DX009 (ip), vehicle: water 113 % of control

O=C(CI)Nc1ccc(Br)cc1
inactive: dose: 8.75 mg/kg/injection, schedule: Q01DX009 (ip), vehicle: Klucel (hydroxypropylcellulose) (HPC) 104 % of control | dose: 17.5 mg/kg/injection, schedule: Q01DX009 (ip), vehicle: Klucel (hydroxypropylcellulose) (HPC) 104 % of control | dose: 26.25 mg/kg/injection, schedule: Q04DX003 (ip), vehicle: Klucel (hydroxypropylcellulose) (HPC) 90 % of control | dose: 35.0 mg/kg/injection, schedule: Q01DX009 (ip), vehicle: Klucel (hydroxypropylcellulose) (HPC) 104 % of control

N=C(N)SC(c1ccccc1)c1ccccc1
inactive: dose: 100.0 mg/kg/injection, schedule: Q01DX001 (ip), vehicle: Klucel (hydroxypropylcellulose) (HPC) 100 % of control | dose: 200.0 mg/kg/injection, schedule: Q01DX001 (ip), vehicle: Klucel (hydroxypropylcellulose) (HPC) 104 % of control

CCC(=O)Oc1ccc2c(c1)CC[C@@H]1[C@@H]2CC[C@]2(C)C[C@H](OC(=O)CC)C[C@@H]12
inactive: [6] 100 % of control | [11] 95 % of control | [7] 118 % of control | [12] 100 % of control | [14] 118 % of control | [13] 90 % of control

CCOC(=O)c1c(N)sc2c1CCCCC2
inactive: [6] 100 % of control | [7] 95 % of control | [14] 110 % of control

COc1ccc(CNCCNCc2ccc(OC)c(OC)c2)cc1OC
inactive: [11] 115 % of control | [12] 105 % of control | [13] 110 % of control

Clc1nc2ccccc2nc1CI
inactive: dose: 1.8 mg/kg/injection, schedule: Q01DX009 (ip), vehicle: saline 118 % of control | dose: 2.7 mg/kg/injection, schedule: Q01DX009 (ip), vehicle: saline 122 % of control | dose: 8.75 mg/kg/injection, schedule: Q04DX003 (ip), vehicle: saline 113 % of control | [8] 118 % of control | [3] 90 % of control | [10] 113 % of control | dose: 17.5 mg/kg/injection, schedule: Q04DX003 (ip), vehicle: saline 121 % of control | dose: 25.0 mg/kg/injection, schedule: Q04DX003 (ip), vehicle: saline with Tween-80 118 % of control | dose: 35.0 mg/kg/injection, schedule: Q04DX003 (ip), vehicle: saline 113 % of control | [4] 113 % of control
